# Data from article PMC5503546, “Synthesis, bioactivity, 3D-QSAR studies of novel dibenzofuran derivatives as PTP-MEG2 inhibitors” (Oncotarget, 2017).
# Columns and labels:
# Human recombinant SHP2 = target: T1, Human recombinant SHP2 (Homo sapiens, UniProt Q06124); experiment: PTP activity assay (pNPP), SHP2; assay type: biochemical; conditions: triplicate; read-out: SHP-2 IC50
# T1 construct: made in house; host or cells: E. coli
# T1 sequence (Q06124 1-593): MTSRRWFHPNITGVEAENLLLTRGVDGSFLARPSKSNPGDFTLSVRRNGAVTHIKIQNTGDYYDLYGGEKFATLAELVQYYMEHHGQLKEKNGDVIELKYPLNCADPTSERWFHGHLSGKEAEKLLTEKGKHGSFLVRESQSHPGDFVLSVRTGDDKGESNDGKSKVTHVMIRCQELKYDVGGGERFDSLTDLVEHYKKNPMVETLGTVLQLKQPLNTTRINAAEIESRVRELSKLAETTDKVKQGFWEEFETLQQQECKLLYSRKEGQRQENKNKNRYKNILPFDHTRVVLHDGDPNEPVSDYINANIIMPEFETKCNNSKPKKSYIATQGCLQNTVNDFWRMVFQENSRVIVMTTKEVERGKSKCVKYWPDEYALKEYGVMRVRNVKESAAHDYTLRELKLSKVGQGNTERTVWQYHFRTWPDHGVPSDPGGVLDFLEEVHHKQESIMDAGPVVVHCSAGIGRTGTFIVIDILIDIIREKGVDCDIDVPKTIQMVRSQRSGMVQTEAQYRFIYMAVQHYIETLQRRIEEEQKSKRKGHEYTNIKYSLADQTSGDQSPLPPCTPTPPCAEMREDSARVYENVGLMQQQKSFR
# Excerpt: (§1) Human recombinant PTP-MEG2, SHP2 and CDC25 were expressed in E. coli and purified by Ni-NTA affinity chromatography in our laboratory. The basic chemical reaction catalyzed by a phosphatase converts a phosphosubstrate into a dephosphorylated product and free phosphate which could be measured as a surrogate for phosphatase activity. pNPP(para-nitrophenyl phosphate) was used as phosphatase substrate which can be hydrolyzed by phosphatase to give para-nitrophenol. Subsequently, para-nitrophenol converts into para-nitrophenolate (pNP) with addition of sodium hydroxide stop solution. pNP is an intense yellow compound and could be measured at 405 nm using a spectrophotometer. To begin with, purified recombinant PTP-MEG2, SHP2 and CDC25 (0.05 μg) in 50 μL buffer with 50 mM citrate (pH 6.0), 0.1 M NaCl, 1 mM EDTA, and 1 mM dithiothreitol (DTT) and test compounds were added to each well of a 96-well plate. Blank was prepared by omitting enzyme and substituting an equivalent volume of buffer. After preincubation for 15 min at room temperature, 50 μL of reaction buffer with 2 mM pNPP was added and incubated at 37°C for 30 min. Then, the reaction was stopped by adding 10 μL 0.2 M sodium hydroxide and chilled on ice quickly. In addition, the amount of pNP was measured by detecting the absorption at 405 nm against blank. Finally, IC50 values were determined by analyzing the data using ORIGINPRO 8 software.
# Human recombinant CDC25 = experiment: PTP activity assay (pNPP), CDC25; assay type: biochemical; conditions: triplicate
# Excerpt: as §1
# [1] = target: T2, Human recombinant PTP-MEG2 (Homo sapiens, UniProt P43378); experiment: PTP activity assay (pNPP), PTP-MEG2; assay type: biochemical; conditions: triplicate, mean ± S.E.M.
# T2 construct: made in house; host or cells: E. coli
# T2 sequence (P43378 1-593): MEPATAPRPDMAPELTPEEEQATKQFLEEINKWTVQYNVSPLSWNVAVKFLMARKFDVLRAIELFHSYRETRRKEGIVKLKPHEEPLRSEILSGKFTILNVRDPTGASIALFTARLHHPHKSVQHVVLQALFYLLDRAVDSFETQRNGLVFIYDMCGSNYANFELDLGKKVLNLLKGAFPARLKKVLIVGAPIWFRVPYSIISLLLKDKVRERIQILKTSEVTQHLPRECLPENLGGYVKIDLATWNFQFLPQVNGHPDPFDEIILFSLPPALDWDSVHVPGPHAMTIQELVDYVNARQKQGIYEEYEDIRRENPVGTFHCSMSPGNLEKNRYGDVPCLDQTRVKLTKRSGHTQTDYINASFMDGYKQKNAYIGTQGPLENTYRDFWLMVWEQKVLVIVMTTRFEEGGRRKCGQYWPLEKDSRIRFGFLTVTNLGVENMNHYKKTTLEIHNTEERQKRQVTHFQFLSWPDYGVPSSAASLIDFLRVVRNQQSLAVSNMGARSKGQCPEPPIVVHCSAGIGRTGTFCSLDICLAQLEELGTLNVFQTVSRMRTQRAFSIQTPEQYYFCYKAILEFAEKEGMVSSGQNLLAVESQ
# Excerpt: as §1
# diet-induced obese mice = conditions: ref [20]; cited from earlier work
SMILES,IC50 (Human recombinant SHP2),IC50 (Human recombinant CDC25),IC50 [1],"effect on insulin signaling, insulin sensitivity and glucose homeostasis (diet-induced obese mice)"
"CCOC(=O)c1cc(OCC2CC2)c2c(c1)oc1cc(F)c(C(C)C)cc12 [Compound 10a, ethyl 1-(cyclopropylmethoxy)-7-fluoro-8-isopropyldibenzo[b, d]furan-3-carboxylate]",> 50 µM,> 50 µM,0.32 ± 0.02 µM,–
"COc1ccc(COc2cc(C(=O)OCC3CCCCC3)cc3oc4cc(F)c(C(C)C)cc4c23)cc1 [Compound 11d, cyclohexylmethyl7-fluoro-8-isopropyl-1-((4-methoxybenzyl)oxy)dibenzo[b, d]furan-3-carboxylate]",> 50 µM,> 50 µM,0.83 ± 0.04 µM,–
"CCCCCCOc1cc(C(=O)OCC2CCCCC2)cc2oc3cc(F)c(C(C)C)cc3c12 [Compound 11c, cyclohexylmethyl7-fluoro-1-(hexyloxy)-8-isopropyldibenzo[b, d]furan-3-carboxylate]",> 50 µM,> 50 µM,3.16 ± 0.32 µM,–
"CCOC(=O)c1cc(OC(C)=O)c2c(c1)oc1cc(F)c(C(C)C)cc12 [Compound 8, ethyl 1-acetoxy-7-fluoro-8-isopropyldibenzo[b, d]furan-3-carboxylate]",> 50 µM,> 50 µM,3.7 ± 0.22 µM,–
"CCOC(=O)c1cc(OCC2CCCCC2)c2c(c1)oc1cc(F)c(C(C)C)cc12 [Compound 10c, ethyl 1-(cyclohexylmethoxy)-7-fluoro-8-isopropyldibenzo[b, d]furan-3-carboxylate]",> 50 µM,> 50 µM,1.19 ± 0.08 µM,–
"CCCCCCOc1cc(C(=O)OCC)cc2oc3cc(F)c(C(C)C)cc3c12 [Compound 10b, ethyl 7-fluoro-1-(hexyloxy)-8-isopropyldibenzo[b, d]furan-3-carboxylate]",> 50 µM,> 50 µM,1.22 ± 0.11 µM,–
CCOC(=O)/C(=C/C#Cc1cc(C(C)C)c(F)cc1OC)CC(=O)O [compound7],–,–,–,augment insulin signaling and enhance the insulin sensitivity and glucose homeostasis
"CCOC(=O)c1cc(OCc2ccc(OC)cc2)c2c(c1)oc1cc(F)c(C(C)C)cc12 [Compound 10d, ethyl7-fluoro-8-isopropyl-1-((4-methoxybenzyl)oxy)dibenzo[b, d]furan-3-carboxylate]",> 50 µM,> 50 µM,3.39 ± 0.34 µM,–
"COC(=O)c1cc(O)c2c(c1)oc1cc(F)c(C(C)C)cc12 [Compound 9a, methyl 7-fluoro-1-hydroxy-8-isopropyldibenzo[b, d]furan-3-carboxylate]",> 50 µM,> 50 µM,5 ± 0.4 µM,–

# More lines, main results first:
IC50 (Human recombinant SHP2),IC50 (Human recombinant CDC25),IC50 [1],SMILES,"effect on insulin signaling, insulin sensitivity and glucose homeostasis (diet-induced obese mice)"
> 50 µM,> 50 µM,2.41 ± 0.17 µM,"CCCCCCOc1cc(C(=O)OCC2CC2)cc2oc3cc(F)c(C(C)C)cc3c12 [Compound 11a, cyclopropylmethyl7-fluoro-1-(hexyloxy)-8-isopropyldibenzo[b, d]furan-3-carboxylate]",–
> 50 µM,> 50 µM,5.35 ± 0.43 µM,"CC(C)c1cc2c(cc1F)oc1cc(C(=O)O)cc(OCC3CC3)c12 [Compound 11e, 1-(cyclopropylmethoxy)-7-fluoro-8-isopropyldibenzo[b, d]furan-3-carboxylic acid]",–
> 50 µM,> 50 µM,1.06 ± 0.1 µM,"COc1ccc(COc2cc(C(=O)OCC3CC3)cc3oc4cc(F)c(C(C)C)cc4c23)cc1 [Compound 11b, cyclopropylmethyl7-fluoro-8-isopropyl-1-((4-methoxybenzyl)oxy)dibenzo[b, d]furan-3-carboxylate]",–
